Reference: patent US12233057B2, “Small molecules for inhibiting chemokine activity and/or cancer cells growth” (AlonBio Ltd., priority 2015, dated 2025)

Assays:
SDF-1 = assay: Migration assay: Jurkat cells towards SDF-1 (Transwell); assay type: cell-based, human; settings: for Inhibition of SDF-1/CXCR4 mediated migration of Jurkat cells: 1, 5, 10 and 50 μM (FIGS. 19A-B)
Experimental: (§1) 600 μl of RPMI medium was added to the lower chambers of Transwell® transmigration plates, supplemented with 2 μg/ml of MIP3a, 100 ng/ml of SDF-1 or 10 ng/ml of MCP-1. The tested small molecule was added to the lower chambers at the indicated concentration, except in control samples. The MIP3a, SDF-1 or MCP-1 was incubated with the small molecule for 30 minutes at room temperature before the initiation of the migration assay. Following 30 minutes of incubation 2×10^5 immune cells were added to the upper chambers of the transmigration plates in a total volume of 100 μl. Cells which migrated within 3 hours to the bottom chamber of the Transwell® plates were counted using a FACScalibur™ flow cytometer.
To evaluate migration towards SDF-1, Jurkat cells were re-suspended in RPMI medium containing 1% fetal calf serum (FCS).

[1] = system: MV4-11 human acute myeloid leukemia cells; assay: Cancer cell viability assay, propidium iodide staining (FACS); assay type: cell-based
Experimental: (§2) The cancer cells were incubated in cell medium with 1% fetal calf serum (FCS) at a concentration of 2×10^5 cells/well at a final volume of 250 μl in 96-well plate. The tested small molecule was added to the cells at the indicated concentrations. The cells were incubated for 24 hours and the number of dead and viable cells was then evaluated by fluorescence-activated cell sorting (FACS), using propidium iodide (PI) staining. The IC50 of the small molecule-induced cell death was determined using GraphPad Prism software.
In order to assess the effect of BKT300 on cancer cells viability, the in vitro effect on MV4-11 human acute myeloid leukemia cells was evaluated. The MV4-11 cancer cells were incubated in RPMI cell medium with 1% fetal calf serum (FCS) at a concentration of 2×10^5 cells/well at a final volume of 250 μl in 96-well plate. BKT300 was added to the cells at the indicated concentrations. The cells were incubated for 24 hours and the number of dead and viable cells was then evaluated by fluorescence-activated cell sorting (FACS), using propidium iodide (PI) staining. The IC50 of […] cell death was determined using GraphPad Prism software.

U937 cells [2] = assay: Cell cycle by 7-AAD assay in U937 cells; assay type: cell-based; settings: U937, 24 hours; for Effect on cell cycle: any of the tested concentrations (0.1, 1 and 10 μM)
Experimental: (§3) U937 cells were incubated for 24 hours with RPMI medium 1% FCs in the presence of 0.1, 1, and 10 μM of Compounds A1, A3, B1, D1 and BKT300-3-c5, using DMSO as a solvent.
Cell cycle was measured using the 7-AAD assay.

U937 cells [3] = assay: Apoptosis and cell viability by annexin-V/PI assay in U937 cells; assay type: cell-based; settings: U937, 24 hours; for Effect on apoptosis: any of the tested concentrations (0.1, 1 and 10 μM); for Concentration at which an effect on apoptosis was observed / Concentration at which an effect on cell viability was observed: tested 0.1, 1 and 10 μM
Experimental: as §3
Apoptosis and cell viability were measured using the annexin-V/PI assay.

Legionella = settings: cited from earlier work
other bacteria = settings: Nomura et al., Biol Pharm Bull 2012; cited from earlier work
glioblastoma = settings: animal studies; Kioi et al. 2010; cited from earlier work
[4] = animal studies; Wilson et al. 2011; cited from earlier work
metastasis = settings: animal studies; Smith et al. 2004; cited from earlier work
various cancer cells = assay: 7-ADD staining of various cancer cells (cell cycle / apoptosis); assay type: cell-based; settings: 1 μM, 24-hour incubation, all tested cells (FIG. 29)
Experimental: While further studying the activity of BKT300-3-c5, various cancer cells were incubated with 1 μM BKT300-3-c5, and without it (control), and then stained for 7-ADD.

RPMI8826 = assay: Inhibition of cell growth in additional cancer cell lines; assay type: cell-based; settings: 1.0 Micromolar; RPMI8826, Myeloma
SU-DHL-4 = assay: as above; assay type: cell-based; settings: Homo sapiens; 1.0 Micromolar; SU-DHL-4, DLBCL
OVCAR3 = assay: as above; assay type: cell-based; settings: Homo sapiens, OVCAR-3; 1.0 Micromolar; OVCAR3, Ovarian
K562 = assay: as above; assay type: cell-based; settings: Homo sapiens; 1.0 Micromolar; K562, CML
MV4-11 cells = assay: Annexin-V and Propidium Iodide staining of MV4-11 cells; assay type: cell-based, human; settings: 1 μM, 24 hours (FIG. 30)
Experimental: In further studies, apoptosis induction by BKT300-3-c5 was established by incubating MV4-11 cells with and without BKT300-3-c5 (1 μM) for 24 hours, followed by staining the cells for Annexin-V and Propidium Iodide (PI).

MCP-1 = MCP-1 (Homo sapiens, UniProt P13500); assay: Migration assay: THP-1 cells towards MCP-1 (Transwell); assay type: cell-based; settings: 0.1, 0.5, 1 and 10 μM (FIG. 20B)
Experimental: as §1
To evaluate migration towards MCP-1, JTHP-1 cells were re-suspended in RPMI medium containing 1% fetal calf serum (FCS).

H460 = assay: Inhibition of cell growth in additional cancer cell lines; assay type: cell-based; settings: Homo sapiens, NCI-H460; 1.0 Micromolar; H460, Lung
caspase-3 = assay: Cleaved caspase-3 by Western blot and Elisa in AML cell lines NB4, U937 and MV4-11; assay type: cell-based, human; settings: 1 μM, 24 hours; NB4, U937 and MV4-11 (FIGS. 31A-C)
Experimental: In still further studies, the role of caspase-3 (CASP3) in the BKT300-3-c5-induced apoptosis of AML cell lines NB4, U937 and MV4-11 was tested. Cells were incubated with BKT300-3-c5 (1 μM) for 24 hours, and were then tested for the presence of cleaved using mAb against human cleaved caspase 3 by Western blot and Elisa assay to caspase-3.

Farage = assay: Inhibition of cell growth in additional cancer cell lines; assay type: cell-based; settings: 1.0 Micromolar, DLBCL
[5] = system: MV4-11, U937, REH, THP-1, NB4, PC-3 and B16-F10 cells; assay: Cancer cell viability assay (PI staining), comparison with IPI-145 in all tested cell lines; assay type: cell-based; settings: 24 hours
Experimental: as §2
The effect of BKT300-3-c5 on the viability of various cancer cells has been tested, as described under the “method” section hereinabove, and compared to the effect of IPI-145.
FIGS. 22A-B, 23A-B, 24A-B and 25A-B present the effect of BKT300-3-c5 and IPI-145 on various leukemic cells: U937, REH, THP-1 and NB4, respectively.
FIG. 26 presents the effect of BKT300-3-c5 and IPI-145 on prostate cancer PC-3 cells.
FIG. 27 presents the effect of BKT300-3-c5 and IPI-145 on melanoma B16-F10 cells.

SKNBE = assay: Inhibition of cell growth in additional cancer cell lines; assay type: cell-based; settings: 1.0 Micromolar, Neuroblastoma
SU-DHL-6 = assay: as above; assay type: cell-based; settings: Homo sapiens; 1.0 Micromolar; SU-DHL-6, DLBCL
Toledo = assay: as above; assay type: cell-based; settings: Homo sapiens, 1.0 Micromolar, DLBCL
HL60 = assay: as above; assay type: cell-based; settings: Homo sapiens, HL-60; 1.0 Micromolar; HL60, AML

Chain of MCP-1 (P13500 24-99): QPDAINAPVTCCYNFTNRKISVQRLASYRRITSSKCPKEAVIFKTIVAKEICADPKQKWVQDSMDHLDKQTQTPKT

CCCCCc1cc(OC)ccc1Oc1cc(OC)cc2c1NC(=O)C(CCCCC)C2=O (stereo not shown) [BKT300-11-a5, 6-methoxy-8-(4-methoxy-2-pentylphenoxy)-3-pentylquinoline-2,4(1H,3H)-dione]
Inhibition of SDF-1/CXCR4 mediated migration of Jurkat cells (SDF-1): inhibition
Effect on the viability of MV4-11 cells ([1]; 1.328, 6.64, 13.28 and 26.56 μM (FIGS. 28A-B)): affect viability

COc1ccc(Oc2cc(OC)cc3c2NC(=O)CC3=O)c(OC)c1 [Compound A1, 8-(2,4-dimethoxyphenoxy)-6-methoxyquinoline-2,4(1H,3H)-dione]
Effect on cell cycle (U937 cells [2]): no effect
Effect on apoptosis (U937 cells [3]): no effect

CCCCCc1cc2cc(O)cc(Oc3c(O)cc(O)c(C(=O)O)c3CCCCC)c2c(=O)o1 [BKT400]
Inhibition of migration of Jurkat cells towards SDF-1 (SDF-1; 1 and 10 μg/ml (FIG. 2C)): inhibit

CCCCCC(=O)Cc1cc(O)cc(O)c1Oc1cc(O)cc2cc(CCCCC)oc(=O)c12 [8-(2,4-dihydroxy-6-(2-oxoheptyl)-phenoxy)-6-hydroxy-3-pentyl-1H-isochromen-1-one]
Antibacterial activity against Legionella (Legionella): potent antibacterial activity
Antibacterial activity against other bacteria (other bacteria): not against other bacteria

CCCCCC1C(=O)Nc2c(Oc3ccc(OC)cc3)cc(OC)cc2C1=O (stereo not shown) [Compound B1, 6-methoxy-8-(4-methoxyphenoxy)-3-pentylquinoline-2,4(1H,3H)-dione]
Concentration at which cell cycle arrest is demonstrated (U937 cells [2]; tested 0.1, 1 and 10 μM): 10 µM
Concentration at which some effect on cell cycle is already observed (U937 cells [2]; tested 0.1, 1 and 10 μM): 1 µM
Concentration at which an effect on apoptosis was observed (U937 cells [3]): 1 µM
Concentration at which an effect on cell viability was observed (U937 cells [3]): 1 µM

CCCCCC1C(=O)Nc2c(Oc3ccccc3OC)cc(OC)cc2C1=O (stereo not shown) [Compound D1, 6-methoxy-8-(2-methoxyphenoxy)-3-pentylquinoline-2,4(1H,3H)-dione]
Concentration at which cell cycle arrest is demonstrated (U937 cells [2]; tested 0.1, 1 and 10 μM): 1 µM
Concentration at which an effect on apoptosis was observed (U937 cells [3]): 0.1 µM
Concentration at which an effect on cell viability was observed (U937 cells [3]): 0.1 µM

c1cc(CN2CCCNCCNCCCNCC2)ccc1CN1CCCNCCNCCCNCC1 [plerixafor]
Effect on recurrence of glioblastoma (glioblastoma): reduce recurrence of glioblastoma associated with vasculogenesis
Effect on opioid-induced hyperalgesia [4]: counteract opioid-induced hyperalgesia
Effect on metastasis (metastasis): reduce metastasis

C[C@H](Nc1ncnc2nc[nH]c12)c1cc2cccc(Cl)c2c(=O)n1-c1ccccc1 [IPI-145, reference compound]
Apoptotic cell death, 7-ADD staining (various cancer cells): does not affect growth arrest nor apoptosis
Growth arrest (cell cycle), 7-ADD staining (various cancer cells): does not affect growth arrest nor apoptosis

CCCCCC1C(=O)Nc2c(Oc3ccc(OC)cc3OC)cc(OC)cc2C1=O (stereo not shown) [BKT300-3-c5, 8-(2,4-dimethoxyphenoxy)-6-methoxy-3-pentylquinoline-2,4(1H,3H)-dione]
Inhibiting SDF-1/CXCR4 mediated migration of Jurkat cells, compared to IPI-145 (SDF-1; 1, 5, 10 and 20 μM (FIG. 20A)): more effective that IPI-145
Inhibition of SDF-1/CXCR4 mediated migration of Jurkat cells (SDF-1): inhibition
inhibition at 1 µM (RPMI8826): 90.6%
Apoptotic cell death, 7-ADD staining (various cancer cells): induce apoptotic cell death
Growth arrest (cell cycle), 7-ADD staining (various cancer cells): arrest the growth at the G2M phase
inhibition at 1 µM (SU-DHL-4): 34%
inhibition at 1 µM (OVCAR3): 93.7%
Concentration at which cell cycle arrest is demonstrated (U937 cells [2]; tested 0.1, 1 and 10 μM): 0.1 µM
IC50 ([1]; Homo sapiens, MV4-11, 24 hour-treatment (FIG. 21B), read-out: IC50, viability of MV4-11 AML cells): 850 nM
inhibition at 1 µM (K562): 71%
Apoptosis induction, percentage of viable MV4-11 cells (MV4-11 cells): reduction in the percentage of viable cells via apoptosis
Inhibiting MCP-1 induced migration of THP-1, compared to IPI-145 (MCP-1): more effective that IPI-145
inhibition at 1 µM (H460): 78%
Cleaved caspase-3 in induced apoptosis (caspase-3): via caspase-3 activation
inhibition at 1 µM (Farage): 40%
Concentration at which an effect on apoptosis was observed (U937 cells [3]): 0.1 µM
Concentration at which an effect on cell viability was observed (U937 cells [3]): 0.1 µM
Reducing the survival of cancer cells, compared to IPI-145 [5]: superior effect compared to IPI-145
inhibition at 1 µM (SKNBE): 73%
inhibition at 1 µM (SU-DHL-6): 50%
inhibition at 1 µM (Toledo): 4%
inhibition at 1 µM (HL60): 94.9%

CCC1C(=O)Nc2c(Oc3ccc(OC)cc3OC)cc(OC)cc2C1=O (stereo not shown) [Compound A3, 8-(2,4-dimethoxyphenoxy)-3-ethyl-6-methoxyquinoline-2,4(1H,3H)-dione]
Effect on cell cycle (U937 cells [2]): no effect
Effect on apoptosis (U937 cells [3]): no effect
